The values below come from paper PMC10150354, “Linearization of the Brevicidine and Laterocidine Lipopeptides Yields Analogues That Retain Full Antibacterial Activity” (Journal of Medicinal Chemistry, 2023).

Converted amounts (≈) assume the structure as drawn. Where a SMILES comes first, the peptide text is derived from it. [ ]: non-standard residue; d: D form. The star is where a group is joined. ξ: configuration not given here. Octanoyl(7-Me) = CC(C)CCCCCC(=O)*; Hexanoyl(4ξ-Me) = CCC(C)CCC(=O)*; dOrn = NCCC[C@@H](N)C(=O)O; Orn = NCCC[C@H](N)C(=O)O; Dap = NC[C@H](N)C(=O)O; Alloc = C=CCOC(=O)*

One assay deals with A. baumannii ATCC 17961. The class given is cell-based, Acinetobacter baumannii. The following applies: microbroth dilution per CLSI, MHB, 18 h at 37 °C, visual inspection, three technical replicates. In a few lines: (§1)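 CLSI broth microdilution in MHB, polypropylene plates; log-phase bacteria (OD600 ~0.5, grown in TSB, with kanamycin for the E. coli ATCC 25922 MCR-1 strain) added at 2 × 10^5 CFU/mL. Read visually after 18 h at 37 °C with shaking; MIC = lowest concentration preventing visible growth, three technical replicates.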
A general note: Dilution methods test growth across graded concentrations, often in twofold steps.

In the next assay the test system is S. aureus USA300. The class given is cell-based, Staphylococcus aureus. The following applies: microbroth dilution per CLSI, MHB, 18 h at 37 °C, visual inspection, three technical replicates. An outline of the steps: as §1
A further assay has as its system P. aeruginosa PAO1. The class given is cell-based, Pseudomonas aeruginosa. The following applies: microbroth dilution per CLSI, MHB, 18 h at 37 °C, visual inspection, three technical replicates. In a few lines: as §1
The next assay has as its system E. coli ATCC 25922. The class given is cell-based, Escherichia coli. The following applies: for Antibacterial activity (MIC) E. coli ATCC 25922: microbroth dilution per CLSI, MHB, 18 h at 37 °C, visual inspection, three technical replicates; for MIC (µg/mL) against E. coli (ATCC 25922): (Supplement 2). In a few lines:
as §1

Another assay concerns E. coli (MCR-1). The class given is cell-based, Escherichia coli. The following applies: microbroth dilution per CLSI, MHB, 18 h at 37 °C, visual inspection, three technical replicates, E. coli 25922 carrying mcr-1. In a few lines: as §1
The subject of assay [1] is panel of Gram-negative and Gram-positive ESKAPE pathogens. The class given is cell-based. The following applies: for fold improvement in activity with respect to C-terminal acids 4 and 5: MIC of C-terminal amide vs C-terminal acid; for fold reduction in activity compared to parent peptides: MIC vs brevicidine / laterocidine; for MIC values, summarised over strains: against most strains of the panel. The procedure:
Linear laterocidine (LL-OH, 4) and linear brevicidine (LB-OH, 5) were first synthesized by Fmoc SPPS, starting from 2-chlorotrityl (2-CT) chloride resin. The antibacterial activity of these peptides was then compared to brevicidine (1) and laterocidine (2) using minimum inhibitory concentration (MIC)/microbroth dilution assays (Table 1). The MICs of all peptides were determined against a panel of Gram-negative and Gram-positive ESKAPE pathogens. Additionally, a strain of E. coli carrying the mcr-1 gene was included in the panel. The mcr-1 gene is a transferrable plasmid that confers resistance against colistin, a last-resort antibiotic for Gram-negative infections, by reducing the overall negative charge of lipopolysaccharide (LPS) through modification of lipid A with phosphoethanolamine. The propensity for cationic antibiotics to bind to the cell membrane is therefore reduced. This gene has been observed in more than 27 bacterial species over six continents.[26] The spread of the mcr-1 gene could render colistin ineffectual; therefore, novel antibacterials are urgently required to overcome this form of resistance.
All minimum inhibitory concentrations (MICs) were determined according to Clinical and Laboratory Standards Institute (CLSI) guidelines. Blood agar plates were inoculated with glycerol stocks of E. coli ATCC 25922, K. pneumoniae ATCC 13883, A. baumannii ATCC 17961, P. aeruginosa PAO1, and S. aureus USA300. The inoculated agar plates were then incubated for 16 h at 37 °C. Individually grown colonies were subsequently used to inoculate 5 mL aliquots of TSB that were then incubated at 37 °C with shaking at 220 rpm. E. coli 25922 MCR-1 glycerol stock was used to inoculate 5 mL of TSB supplemented with kanamycin that was then incubated for 16 h at 37 °C with shaking at 220 rpm. The next day the culture was diluted 100-fold in TSB supplemented with kanamycin and incubated at 37 °C with shaking at 220 rpm. In parallel, the lipopeptide antibiotics DMSO stocks to be assessed were serially diluted with MHB in polypropylene 96-well plates (50 μL in each well). Colistin sulfate stocks were dissolved in water before being diluted with MHB. Aliquots of the inoculated TSB were incubated until an OD600 of around 0.5 was reached. The bacterial suspensions were then diluted with MHB (2 × 10^5 CFU/mL) and added to the microplates containing the test compounds (50 μL to each well). The well plates were sealed with an adhesive membrane and after 18 h of incubation at 37 °C with shaking at 600 rpm, the wells were visually inspected for bacterial growth. MIC values reported are based on three technical replicates and defined as the lowest concentration of the compound that prevented visible growth of bacteria.

The next assay deals with K. pneumoniae ATCC 13883. The class given is cell-based, Klebsiella pneumoniae. The following applies: microbroth dilution per CLSI, MHB, 18 h at 37 °C, visual inspection, three technical replicates. In a few lines: as §1

On to `CCC(C)CCC(=O)N[C@H](CC(N)=O)C(=O)N[C@H](Cc1ccc(O)cc1)C(=O)N[C@H](Cc1c[nH]c2ccccc12)C(=O)N[C@H](CCCN)C(=O)N[C@@H](CCCN)C(=O)NCC(=O)N[C@H](CCCN)C(=O)N[C@@H](Cc1c[nH]c2ccccc12)C(=O)N[C@H](C(=O)N[C@H](C(=O)NCC(=O)N[C@@H](CO)C(N)=O)[C@@H](C)CC)[C@@H](C)O` (some centres unmarked) [LB-NH2 (7)] ({Hexanoyl(4ξ-Me)}-[dN][dY][dW][dOrn][Orn]G[dOrn]WTIGS-NH2), for which, in the assay on A. baumannii ATCC 17961, the “Antibacterial activity (MIC) A. baumannii ATCC 17961” value stood at 16 µg/mL. The “Antibacterial activity (MIC) S. aureus USA300” value with S. aureus USA300 is above 32 µg/mL. Besides, the “Antibacterial activity (MIC) P. aeruginosa PAO1” value with P. aeruginosa PAO1 stood at 4 µg/mL. Moreover, in the assay on E. coli ATCC 25922, the “Antibacterial activity (MIC) E. coli ATCC 25922” value turned out to be 16 µg/mL. Also, the “Antibacterial activity (MIC) E. coli (MCR-1)” value in the assay with E. coli (MCR-1) came to 16 µg/mL. For the same compound, in assay [1], the “fold improvement in activity with respect to C-terminal acids 4 and 5” value worked out at 2 fold; the “fold reduction in activity compared to parent peptides” value is 2/4. In addition, the “Antibacterial activity (MIC) K. pneumoniae ATCC 13883” value in the assay with K. pneumoniae ATCC 13883 is 16 µg/mL.

Consider `CC[C@H](C)[C@H](NC(=O)[C@@H](NC(=O)[C@H](Cc1c[nH]c2ccccc12)NC(=O)[C@@H](CCCN)NC(=O)CNC(=O)[C@H](CCCN)NC(=O)[C@@H](CCCN)NC(=O)[C@@H](Cc1c[nH]c2ccccc12)NC(=O)[C@@H](Cc1ccc(O)cc1)NC(=O)[C@@H](CO)NC(=O)CCCCCC(C)C)[C@@H](C)O)C(=O)N[C@@H](CC(N)=O)C(=O)NCC(=O)NCC(N)=O` [LL-NH2 (6)] ({Octanoyl(7-Me)}-[dS][dY][dW][dOrn][Orn]G[dOrn]WTINGG-NH2), for which, in the assay with A. baumannii ATCC 17961, the “Antibacterial activity (MIC) A. baumannii ATCC 17961” value was found to be 8 µg/mL. Besides, the “Antibacterial activity (MIC) S. aureus USA300” value with S. aureus USA300 was above 32 µg/mL. Also, the “Antibacterial activity (MIC) P. aeruginosa PAO1” value in the assay with P. aeruginosa PAO1 is 4 µg/mL. In addition, in the assay on E. coli ATCC 25922, the “Antibacterial activity (MIC) E. coli ATCC 25922” value was determined as 4 µg/mL. Also, in the assay with E. coli (MCR-1), the “Antibacterial activity (MIC) E. coli (MCR-1)” value was 8 µg/mL. Moreover, in assay [1], the “fold improvement in activity with respect to C-terminal acids 4 and 5” value turned out to be 2 fold; the “fold reduction in activity compared to parent peptides” value was 2/4. Further, in the assay with K. pneumoniae ATCC 13883, the “Antibacterial activity (MIC) K. pneumoniae ATCC 13883” value was in the range of 4 to 8 µg/mL.

As for `C=CCOC(=O)NC[C@H](NC(=O)[C@H](Cc1c[nH]c2ccccc12)NC(=O)[C@@H](CCCN)NC(=O)CNC(=O)[C@H](CCCN)NC(=O)[C@@H](CCCN)NC(=O)[C@@H](Cc1c[nH]c2ccccc12)NC(=O)[C@@H](Cc1ccc(O)cc1)NC(=O)[C@@H](CC(N)=O)NC(=O)CCC(C)CC)C(=O)N[C@H](C(=O)NCC(N)=O)[C@@H](C)CC` (some centres unmarked) [Δ12LB (Dap[Alloc]9)-NH2 (61)] ({Hexanoyl(4ξ-Me)}-[dN][dY][dW][dOrn][Orn]G[dOrn]W[Dap](Alloc)IG-NH2), the “Antibacterial activity (MIC) A. baumannii ATCC 17961” value with A. baumannii ATCC 17961 worked out at 2 µg/mL. Besides, in the assay with S. aureus USA300, the “Antibacterial activity (MIC) S. aureus USA300” value was above 32 µg/mL. The “Antibacterial activity (MIC) P. aeruginosa PAO1” value with P. aeruginosa PAO1 was determined as 4 µg/mL. Moreover, in the assay on E. coli ATCC 25922, the “MIC (µg/mL) against E. coli (ATCC 25922)” value is 4 µg/mL (≈ 2.63 µM) and the “Antibacterial activity (MIC) E. coli ATCC 25922” value was 4 µg/mL. In addition, the “Antibacterial activity (MIC) E. coli (MCR-1)” value with E. coli (MCR-1) worked out at 4 µg/mL. Moreover, the “MIC values, summarised over strains” value in assay [1] was 2 to 4 µg/mL. In addition, the “Antibacterial activity (MIC) K. pneumoniae ATCC 13883” value in the assay on K. pneumoniae ATCC 13883 came out at 2 µg/mL.

As to `CCC(C)CCC(=O)N[C@H](CC(N)=O)C(=O)N[C@H](Cc1ccc(O)cc1)C(=O)N[C@H](Cc1c[nH]c2ccccc12)C(=O)N[C@H](CCCN)C(=O)N[C@@H](CCCN)C(=O)NCC(=O)N[C@H](CCCN)C(=O)N[C@@H](Cc1c[nH]c2ccccc12)C(=O)N[C@@H](Cc1ccccc1)C(=O)N[C@H](C(=O)NCC(N)=O)[C@@H](C)CC` (some centres unmarked) [Δ12LB (Phe9)-NH2 (54)] ({Hexanoyl(4ξ-Me)}-[dN][dY][dW][dOrn][Orn]G[dOrn]WFIG-NH2), the “Antibacterial activity (MIC) A. baumannii ATCC 17961” value with A. baumannii ATCC 17961 is 4 µg/mL. The “Antibacterial activity (MIC) S. aureus USA300” value in the assay on S. aureus USA300 was above 32 µg/mL. In the assay with P. aeruginosa PAO1, the “Antibacterial activity (MIC) P. aeruginosa PAO1” value is 4 µg/mL. Also, in the assay on E. coli ATCC 25922, the “MIC (µg/mL) against E. coli (ATCC 25922)” value is reported as 4 µg/mL (≈ 2.67 µM) and the “Antibacterial activity (MIC) E. coli ATCC 25922” value stood at 2 µg/mL. Also, the “Antibacterial activity (MIC) E. coli (MCR-1)” value with E. coli (MCR-1) lay within 2 to 4 µg/mL. For the same compound, in assay [1], the “MIC values, summarised over strains” value lay within 2 to 4 µg/mL. Further, the “Antibacterial activity (MIC) K. pneumoniae ATCC 13883” value in the assay on K. pneumoniae ATCC 13883 was in the range of 2 to 4 µg/mL.

For the compound `CC[C@H](C)[C@H](NC(=O)[C@@H](NC(=O)[C@H](Cc1c[nH]c2ccccc12)NC(=O)[C@@H](CCCN)NC(=O)CNC(=O)[C@H](CCCN)NC(=O)[C@@H](CCCN)NC(=O)[C@@H](Cc1c[nH]c2ccccc12)NC(=O)[C@@H](Cc1ccc(O)cc1)NC(=O)[C@@H](CO)NC(=O)CCCCCC(C)C)[C@@H](C)O)C(=O)N[C@@H](CC(N)=O)C(=O)NCC(N)=O` [Δ13LL-NH2 (8)] ({Octanoyl(7-Me)}-[dS][dY][dW][dOrn][Orn]G[dOrn]WTING-NH2), in the assay on A. baumannii ATCC 17961, the “Antibacterial activity (MIC) A. baumannii ATCC 17961” value turned out to be 4 µg/mL. Further, in the assay with S. aureus USA300, the “Antibacterial activity (MIC) S. aureus USA300” value is above 32 µg/mL. In addition, the “Antibacterial activity (MIC) P. aeruginosa PAO1” value in the assay on P. aeruginosa PAO1 is 4 µg/mL. Further, the “Antibacterial activity (MIC) E. coli ATCC 25922” value in the assay on E. coli ATCC 25922 turned out to be 8 µg/mL. Further, the “Antibacterial activity (MIC) E. coli (MCR-1)” value in the assay on E. coli (MCR-1) was found to be 8 µg/mL. For the same compound, the “Antibacterial activity (MIC) K. pneumoniae ATCC 13883” value in the assay on K. pneumoniae ATCC 13883 lay within 4 to 8 µg/mL.
